In article PMC1253704, “Nitromusk and Polycyclic Musk Compounds as Long-Term Inhibitors of Cellular Xenobiotic Defense Systems Mediated by Multidrug Transporters” (Environmental Health Perspectives, 2004):
Where two headings read alike, the source gives them in different places. Marks after values point to notes of the source that are not given here.

Assays:
[1] = molecular target: T1, efflux transporters in mussel gills (MXR transporters) (Mytilus californianus, UniProt B2WTH9); test: Competitive substrate/transporter inhibition assay: rhodamine B accumulation in mussel gill tissue disks; type: cell-based; conditions: concentration causing 10% of maximal inhibition; mean ± SD; probit regression; 1 μM rhodamine B, 90 min, 15°C
T1 sequence (B2WTH9 1-1311): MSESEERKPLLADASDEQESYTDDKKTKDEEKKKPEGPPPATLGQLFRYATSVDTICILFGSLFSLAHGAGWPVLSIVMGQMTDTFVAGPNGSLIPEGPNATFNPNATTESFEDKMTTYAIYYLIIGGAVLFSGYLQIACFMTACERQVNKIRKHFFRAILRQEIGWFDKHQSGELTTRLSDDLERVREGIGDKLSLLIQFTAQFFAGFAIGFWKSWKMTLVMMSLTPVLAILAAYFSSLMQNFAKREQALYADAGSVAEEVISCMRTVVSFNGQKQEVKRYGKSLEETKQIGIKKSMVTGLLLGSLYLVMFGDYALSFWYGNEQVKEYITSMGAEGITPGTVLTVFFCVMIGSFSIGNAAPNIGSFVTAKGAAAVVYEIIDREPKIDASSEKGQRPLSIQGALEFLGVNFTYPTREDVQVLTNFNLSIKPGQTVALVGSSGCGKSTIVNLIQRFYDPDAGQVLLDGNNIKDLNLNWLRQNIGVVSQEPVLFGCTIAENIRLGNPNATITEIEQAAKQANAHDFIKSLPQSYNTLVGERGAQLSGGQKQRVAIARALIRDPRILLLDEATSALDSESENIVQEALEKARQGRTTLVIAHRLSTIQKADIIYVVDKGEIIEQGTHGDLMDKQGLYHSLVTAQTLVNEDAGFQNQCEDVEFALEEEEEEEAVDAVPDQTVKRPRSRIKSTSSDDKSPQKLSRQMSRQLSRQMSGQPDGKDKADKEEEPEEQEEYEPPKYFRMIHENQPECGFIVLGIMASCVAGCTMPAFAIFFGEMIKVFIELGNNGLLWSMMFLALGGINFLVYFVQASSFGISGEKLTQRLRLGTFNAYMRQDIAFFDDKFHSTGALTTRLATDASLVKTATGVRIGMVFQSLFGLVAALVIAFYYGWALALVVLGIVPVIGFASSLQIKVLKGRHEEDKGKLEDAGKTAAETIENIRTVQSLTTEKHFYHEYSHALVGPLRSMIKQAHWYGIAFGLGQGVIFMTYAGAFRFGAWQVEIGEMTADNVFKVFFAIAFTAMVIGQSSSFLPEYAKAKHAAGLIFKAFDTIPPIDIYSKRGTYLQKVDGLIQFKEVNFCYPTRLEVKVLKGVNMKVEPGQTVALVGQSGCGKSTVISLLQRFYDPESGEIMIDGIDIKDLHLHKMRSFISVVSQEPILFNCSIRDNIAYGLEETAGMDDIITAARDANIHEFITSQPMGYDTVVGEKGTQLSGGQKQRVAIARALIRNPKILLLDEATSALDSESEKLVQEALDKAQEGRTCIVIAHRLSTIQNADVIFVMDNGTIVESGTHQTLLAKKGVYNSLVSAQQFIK
Experimental: The fluorescent dye rhodamine B was used as an indicator of efflux transporter activity. […] Test solutions were prepared in FSW with 1 μM rhodamine B. Stocks of the test compounds dissolved in ethanol were added to FSW to the desired concentrations, and all solutions were adjusted to 1% ethanol along with an ethanol control. […] Incubations were performed in glass petri dishes (diameter, 5 cm) in a volume of 10 mL.
(§1) Gill tissue disks were incubated in test solutions with gentle rocking for 90 min at 15°C in the dark (n = 2–5 tissue disks per dish). After exposure, the tissue disks were briefly washed twice in FSW to remove external rhodamine B, frozen on dry ice or in liquid nitrogen, and stored at −20°C in the dark. […] The sonicates were then centrifuged at 13,000g for 5 min, and the supernatant was transferred to black 96-well microplates (Packard Instrument Co., Meriden, CT). The amount of dye in the supernatant was determined with a fluorescence microplate reader (Packard FluoroCount; […]). Rhodamine B extracts were kept dark and on ice at all times. At each reading, background fluorescence was determined with pure n-butanol and subtracted from each value.
(§2) Transport activities in treated gill disks were normalized relative to nontreated controls that were run for each individual. The ratios, which indicate relative increases in fluorescence, were used as a measure of inhibition by each compound at the specified concentrations. […] IC10 and IC50 values were determined by probit analysis using a macro program for Microsoft Excel written by J. Greve (Fraunhofer-Institut für Umweltchemie und Ökotoxikologie, Schmallenberg, Germany).

[2] = molecular target: T1, efflux transporters in mussel gills (MXR transporters); test: Long-term inhibition: transporter activity assay after 2 hr exposure and 0, 24, 48 hr washing in FSW; type: cell-based; conditions: 1 μM test compound 2 hr
Experimental: as §1
(§3) To examine the duration of inhibitory effects after exposure to test compounds, six to nine gill tissue disks were incubated with 1 μM of test compounds for 2 hr. Transporter activity was then assayed in one-third of the disks immediately after exposure and in the others after 24 hr and 48 hr of washing in fresh FSW (50 mL). FSW was changed after 24 hr. During exposure and washing, dishes were gently rocked at 15°C in the dark. The transporter activity assay was performed with 1 μM rhodamine B as described above.
as §2

[3] = cited from earlier work
[4] = design: method as in Käfferlein et al. 1998; conditions: ref Käfferlein et al. 1998, cited from earlier work
[5] = test system: efflux transporters in mussel gills (MXR transporters); test: Long-term inhibition: transporter activity assay after 2 hr exposure and 0, 24, 48 hr washing in FSW; type: cell-based, Mytilus californianus; conditions: 1 μM test compound 2 hr
Experimental: as §1, §3, §2

[6] = after 24 hr of washing, paired t-test p < 0.05

SMILES | IC10 [1] [nM] | continuing inhibition of transporter activity, treatment versus control (in words) [2, 6] | continuing inhibition of transporter activity, treatment versus control (in words) ([2]; after 48 hr of washing) | Log Kow ([3]; ref Balk et al. (2001)) | Concentrations found in blood plasma ([4]; human blood plasma) | Concentrations found in body fat and breast milk ([4]; human body fat and breast milk) [µmol/kg] | continuing inhibition of transporter activity, treatment versus control (in words) [5, 6] | continuing inhibition of transporter activity, treatment versus control (in words) ([5]; after 48 hr of washing) | Log Kow ([3]; ref Liu (2004))
Cc1c([N+](=O)[O-])c(C)c([N+](=O)[O-])c(C(C)(C)C)c1[N+](=O)[O-] [MX, 1-tert-Butyl-3,5-dimethyl-2,4,6-trinitrobenzene] | 140 ± 120 | significant | trend of reduced activity | 4.9^a | nanomolar range | 0.2 to 0.3 | – | – | –
CC(=O)c1cc2c(cc1C)C(C)(C)C(C)C2C(C)C (centres unmarked) [ATII, 5-Acetyl-1,1,2,6-tetramethyl-3-isopropylindane] | 320 ± 40 | – | – | 6.3^a | – | – | significant | complete recovery | –
CCN(CC)c1ccc2c(-c3ccccc3C(=O)O)c3ccc(=[N+](CC)CC)cc-3oc2c1 [Rhodamine B, reference compound] | – | – | – | – | – | – | – | – | 1.5^c
CC(=O)c1c(C)c([N+](=O)[O-])c(C(C)(C)C)c([N+](=O)[O-])c1C [MK, 1-tert-Butyl-3,5-dimethyl-2,6-dinitro-4-acetylbenzene] | 90 ± 120 | – | – | 4.3^a | – | – | clear trends of increased rhodamine levels | trend of reduced activity | –
CC1COCc2cc3c(cc21)C(C)(C)C(C)C3(C)C (centres unmarked) [HHCB, 1,3,4,6,7,8-Hexahydro-4,6,6,7,8,8-hexamethyl-cyclopenta-γ-[2]-benzopyran] | 370 ± 160 | – | – | 5.9^a | – | – | significant | trend of reduced activity | –
CC(=O)c1cc(C(C)(C)C)cc2c1CCC2(C)C [ADBI, 4-Acetyl-1,1-dimethyl-6-tert-butylindane] | 390 ± 340 | – | – | 5.9^a | – | – | clear trends of increased rhodamine levels | trend of reduced activity | –
